Laboratory results taken from patent US20250115615A1, “Solid Forms of 3-(5-Fluorobenzofuran-3-yl)-4-(5-methyl-5H-[1,3]dioxolo[4,5-f]indol-7-yl)pyrrole-2,5-dione” (Actuate Therapeutics Inc., priority 2017, published 2025).
≈ marks a conversion by molar mass, not a printed value.

What was measured:
Format in all cases: physicochemical
[1] = Solubility in sesame oil (visual estimate); conditions: for visual result: 24 hours, room temperature; for Estimated solubility: sesame oil, stirred 24 hours at room temperature, visual examination
Description: The solubility of 9-ING-41 in sesame oil cannot be measured by HPLC. The solubility was estimated by adding weighed portions of Form I (or Form II) into sesame oil. The samples were stirred for 24 hours at room temperature and the vials were visually examined to ensure dissolution.

[2] = Solubility study, 1 hour (Form II added to Form I-saturated filtrates); conditions: for Crystal form of remaining solids (XRPD): 1 hour; for solubility at 1 h / solubility at 24 h: thermodynamic from solid; for solubility at 1 h: excess Form II added to Form I-saturated filtrate, shaken 1 hour; for solubility at 24 h: Form I suspension shaken 24 hours, room temperature
Description: Step 1: A sufficient amount of Form I was added to 1 mL solvent (EtOH, Labrasol, Benzyl Benzoate, Benzyl Alcohol, PEG400: Tween80: EtOH (75:8:17) and PEG300:BzOH: Water (65:10:25)) to make a suspension. The samples were shaken at 2000 rpm in a shaker at room temperature for 24 hours.
Step 2: The vials were visually examined to ensure saturation. 1 mL of suspension was filtered at 24 hours through a 0.45 μm nylon micro-filtration membrane into another clean clear glass vial. The filtrate was analyzed by HPLC.
Step 3: Excess Form II was added to the 6 residual filtrates from Step 2 to make a suspension, respectively. The samples were shaken at 2000 rpm in a shaker for 1 hour. The suspensions were filtered after 1 hour through a 0.45 μm nylon micro-filtration membrane into another clean glass vial. The filtrate was analyzed by HPLC and the remaining solids were analyzed using XRPD.

[3] = Solubility study, 24 hour (HPLC of filtrate, XRPD of remaining solids); conditions: for solubility at 24 h: thermodynamic from solid
Description: 9-ING-41, either Form I or Form II, was added to 1 mL of each of 10 different solvents in a vial to make a suspension. The samples were shaken at 2000 rpm in a shaker at room temperature for 24 hours. Mixtures were visually examined to ensure saturation. After 24 hours, 1 mL of suspension was filtered through a 0.45 um nylon micro-filtration membrane into another clear glass vial, respectively. The filtrate was analyzed by HPLC and the remaining solids were analyzed using XRPD.

[4] = Mechanical and pressure effects on crystal form (XRPD)
Description: 10.0 mg of Form II was weighed into mortar and ground for 5 min. The remaining solid was collected and analyzed by XRPD. […] 4.50 mg of Form II was compressed into tablet. The tablet was then ground into powder and analyzed by XRPD.

[5] = organic solvent or mixture, PEG400:Tween80:EtOH (75:8:17)

With Cn1cc(C2=C(c3coc4ccc(F)cc34)C(=O)NC2=O)c2cc3c(cc21)OCO3 [Form II, 3-(5-fluorobenzofuran-3-yl)-4-(5-methyl-5H-[1,3]dioxolo[4,5-f]indol-7-yl) pyrrole-2,5-dione] the visual result ([1]; 0.90 mg in 1214.50 mg sesame oil) was “dissolution”, the visual result ([1]; 3.18 mg in 2638.01 mg sesame oil) was “Incomplete” and the Estimated solubility [1] was 0.741 to 1.21 µg/mg. The “Crystal form of remaining solids (XRPD)” value ([2]; EtOH and PEG300:BzOH:Water (65:10:25)) was “did not change”, the “Crystal form of remaining solids (XRPD)” value ([2]; Labrasol, Benzyl Benzoate, Benzyl Alcohol, PEG400:Tween80:EtOH (75:8:17)) was “rapidly converts to Form I” and the solubility at 1 h ([2]; filtrate saturated with Form I, aqueous with cosolvent or surfactant or cyclodextrin, PEG300:BzOH:Water (65:10:25)) was 10.2 mg/mL (≈ 25.3 mM). The solubility at 1 h ([2]; filtrate saturated with Form I, oil or lipid, Labrasol) was 87 mg/mL (≈ 215 mM), the solubility at 1 h ([2]; filtrate saturated with Form I, organic solvent or mixture, Benzyl Alcohol) was 39.9 mg/mL (≈ 98.6 mM) and the solubility at 1 h ([2]; filtrate saturated with Form I, organic solvent or mixture, Benzyl Benzoate) was 71.8 mg/mL (≈ 178 mM). The solubility at 1 h ([2]; filtrate saturated with Form I, organic solvent or mixture, EtOH) was 2.55 mg/mL (≈ 6.3 mM), the solubility at 1 h [2, 5] was 106 mg/mL (≈ 262 mM) and the Solubility ([3]; Benzyl Alcohol, room temperature) was 30.553 mg/mL (≈ 75.6 mM). The Solubility ([3]; Benzyl Benzoate, room temperature) was 73.265 mg/mL (≈ 181 mM), the Solubility ([3]; Dimethyl Acetamide, room temperature) was over 100 mg/mL and the Solubility ([3]; EtOH, room temperature) was 0.903 mg/mL (≈ 2.23 mM). For the same molecule, the Solubility ([3]; Labrasol, room temperature) was 68.455 mg/mL (≈ 169 mM), the Solubility ([3]; PEG300:BzOH:Water (65:10:25), room temperature) was 9.410 mg/mL (≈ 23.3 mM) and the Solubility ([3]; PEG400, room temperature) was over 100 mg/mL. The Solubility ([3]; PEG400:Tween80:EtOH (75:8:17), room temperature) was 90.418 mg/mL (≈ 224 mM), the Solubility ([3]; Water, room temperature) was “Not detected” and the “Crystal form of remaining solids (XRPD)” value ([3]; ethanol experiment) was “the remaining solids were a solvate”. For the same molecule, the “Crystal form of remaining solids (XRPD)” value ([3]; the other experiments (not water, sesame oil, ethanol)) was “the solids appeared to be Form I”, the “Crystal form of remaining solids (XRPD)” value ([3]; water and sesame oil experiments) was “the remaining solids were Form II” and the “Crystal form after compression (XRPD)” value ([4]; 4.50 mg compressed into tablet, then ground into powder) was “no effect on the crystalline form”. For the same molecule, the “Crystal form after grinding (XRPD)” value ([4]; 10.0 mg ground in mortar for 5 min) was “remained Form II”.
For Cn1cc(C2=C(c3coc4ccc(F)cc34)C(=O)NC2=O)c2cc3c(cc21)OCO3 [Form I], the visual result ([1]; 1.00 mg in 3464.12 mg sesame oil) was “Incomplete”, the visual result ([1]; 1.00 mg in 5997.92 mg sesame oil) was “dissolution” and the Estimated solubility [1] was 0.167 to 0.289 µg/mg. It also gave a solubility at 24 h ([2]; aqueous with cosolvent or surfactant or cyclodextrin, PEG300:BzOH:Water (65:10:25)) of 4.96 mg/mL (≈ 12.3 mM), a solubility at 24 h ([2]; oil or lipid, Labrasol) of 61.4 mg/mL (≈ 152 mM) and a solubility at 24 h ([2]; organic solvent or mixture, Benzyl Alcohol) of 22.3 mg/mL (≈ 55.2 mM). The solubility at 24 h ([2]; organic solvent or mixture, Benzyl Benzoate) was 48.3 mg/mL (≈ 119 mM), the solubility at 24 h ([2]; organic solvent or mixture, EtOH) was 1.26 mg/mL (≈ 3.11 mM) and the solubility at 24 h [2, 5] was 73.4 mg/mL (≈ 182 mM). The solubility at 24 h ([3]; EtOH, organic solvent or mixture, room temperature) was 1.27 mg/mL (≈ 3.15 mM), the solubility at 24 h ([3]; Labrasol, oil or lipid, room temperature) was 60.5 mg/mL (≈ 150 mM) and the solubility at 24 h ([3]; PEG300:BzOH:Water (65:10:25), aqueous with cosolvent or surfactant or cyclodextrin, PEG300:BzOH:Water (65:10:25), room temperature) was 5.09 mg/mL (≈ 12.6 mM). For the same molecule, the solubility at 24 h ([3]; PEG400, organic solvent or mixture, PEG400, room temperature) was 96.5 mg/mL (≈ 239 mM), the solubility at 24 h ([3]; PEG400:Tween80:EtOH (75:8:17), organic solvent or mixture, PEG400:Tween80:EtOH (75:8:17), room temperature) was 72.8 mg/mL (≈ 180 mM) and the Solubility ([3]; Water, room temperature) was “Not detected”. For the same molecule, the “Crystal form of remaining solids (XRPD)” value ([3]; all experiments with Form I as starting material) was “remained Form I”, the solubility at 24 h ([3]; benzyl alcohol, organic solvent or mixture, room temperature) was 24 mg/mL (≈ 59.5 mM) and the solubility at 24 h ([3]; benzyl benzoate, organic solvent or mixture, room temperature) was 53 mg/mL (≈ 131 mM). The solubility at 24 h ([3]; dimethyl acetamide, organic solvent or mixture, room temperature) was over 100 mg/mL.
